# Reference: patent US8084399B2, “Process for screening of a binding amphiphilic peptides specific for hairpin RNA” (priority 2009, dated 2011)
# Values joined by “and” are separate entries in the source; they are usually repeats but may differ in a detail not shown here. Equal values may be shown once. Where no end group is shown, it is not given here. [ ]: non-standard residue; d: D form. Orn = NCCC[C@H](N)C(=O)O; Dab = NCC[C@H](N)C(=O)O; Dap = NC[C@H](N)C(=O)O
# Columns and labels:
# [1] = Circular dichroism (CD), percentage of alpha-helix; type: physicochemical; settings: CD at 20° C., condition not given; for Alpha-helical rate (%), second value of pair: value after the slash; for Alpha-helical rate (%), first value of pair: value before the slash
# Method: To investigate alpha-helix of the amphiphilic peptide (1a-1h), circular dichroism (CD) was performed. Particularly, CD was measured at 20° C. by using JASCO model J715 spectropolarimeter. Scanning was performed at 190-250 nm three times (bandwidth: 1 nm, datapitch: 0.5 nm, speed: 100 nm/min), which were averaged to obtain CD data. Spectrum was corrected by measuring background spectrum. CD signal was recorded after modulating thereof with mean residue ellipticity [Q]. Percentage (%) of alpha-helix(fn) was calculated by the following formula. [Q]=Qobs[MRW/(10lc)]
# MRW=mean residue weight (dividing molecular weight by the number of peptide bond, l=pathway length (cm), c=concentration (mg/mL). fn=([Q]222−[Q]coil)/([Q]helix−[Q]coil) [Q]helix=−40,000[…]+100t [Q]coil=640−45t
# [Q]222=mean residue ellipticity at 222 nm (deg cm2 mol-1), [Q]helix=ellipticity of peptide having complete helical structure, [Q]coil=ellipticity of peptide having complete random coil structure, n=number of amino acid, t=° C.
# [2] = target: 16S ribosomal RNA A-site; test: Fluorescence anisotropy competition with Rev-N-rhodamine probe, binding to 16S A-site; settings: 20° C., pH 7.4, read-out: Dissociation constant, 16S A-site
# Method: (§1) Binding force to each target hairpin RNA (IRES, RRE, TAR and 16S A-site) was measured by fluorescence polarization using alanine scanned peptide library (1b-1h).
# (§2) Particularly, […] of each target RNA was prepared at the concentration of 10 mM, which stood at 65° C. for 10 minutes and then cooled down slowly at room temperature, leading to folding. The amphiphilic peptide was prepared respectively at the concentration of […], which were maintained at 0° C. As a probe, rev peptide labeled with rhodamine (Rev-N-rhodamine) emitting […] fluorescence was prepared at the concentration of 10 mM. Buffer was composed of 140 mM NaCl, 5 mM KCl, 1 mM MgCl2, and 20 mM HEPES (N-2-Hydroxyethylpiperazine-N′-2-Ethanesulfonic Acid, pH 7.4). Fluorescence Anisotropy was measured using AMINCO-Bowman Series Luminescence Spectrometer at 20° C. Ten nM of the probe was added in […] of buffer, to which target RNA was added to induce interaction between the probe and the target RNA. At that time, anisotropy value increased. Then, the synthesized peptide competing with the probe for binding site was added thereto with increasing the concentration slowly. Changes of fluorescence polarization were measured until fluorescence polarization reached as low as the beginning. Considering the concentration and amount of the peptide added, binding force to target RNA was calculated. That is, the binding strength between target RNA and peptide was determined according to the following KaleidaGraph. [Peptide]=Kd(Amax−A)/[Kd(A−A0)+1]×[RNA]−Kd(A−A0)^2[Probe]0/(Amax−A)(Amax−A0)
# (§3) Herein, [Peptide] indicates the concentration of peptide, [RNA] indicates the concentration of target RNA, and [Probe]0 indicates the concentration of probe. A is the value of fluorescence anisotropy of sample, Amax is the value of totally bound tracer, and A0 is the value of totally free tracer.
# [3] = target: RRE hairpin RNA; test: Fluorescence anisotropy competition with Rev-N-rhodamine probe, binding to RRE hairpin RNA; set-up: species or system HIV; settings: 20° C., pH 7.4, read-out: Dissociation constant, RRE
# Method: as §1, §2, §3
# [4] = system: IRES domain IV hairpin; test: Fluorescence anisotropy competition with Rev-N-rhodamine probe, binding to IRES hairpin; set-up: species or system HCV; settings: for differentiation coefficient (IRES): (mean Kd to other hairpin RNA)/(Kd to one hairpin RNA); for Kd: fluorescence anisotropy, 20° C., pH 7.4, read-out: Dissociation constant, IRES
# Method: as §1, §2, §3
# [5] = target: TAR hairpin RNA; test: Fluorescence anisotropy competition with Rev-N-rhodamine probe, binding to TAR hairpin RNA; set-up: species or system HIV; settings: fluorescence anisotropy, 20° C., pH 7.4; read-out: Dissociation constant, TAR
# Method: as §1, §2, §3
Substance,"Alpha-helical rate (%), second value of pair [1] [%]","Alpha-helical rate (%), first value of pair [1] [%]",Kd [2] [nM],Kd [3] [nM],differentiation coefficient (IRES) [4],Kd [4] [nM],Kd [5] [nM],"binding strength to IRES, in words ([4]; compared with the original peptide)"
"LKKLLKWLOrnKLLKLAG (LKKLLKWL[Orn]KLLKLAG-NH2; N-terminus assumed; SMILES CC(C)C[C@H](NC(=O)[C@H](CCCCN)NC(=O)[C@H](CC(C)C)NC(=O)[C@H](CC(C)C)NC(=O)[C@H](CCCCN)NC(=O)[C@H](CCCN)NC(=O)[C@H](CC(C)C)NC(=O)[C@H](Cc1c[nH]c2ccccc12)NC(=O)[C@H](CCCCN)NC(=O)[C@H](CC(C)C)NC(=O)[C@H](CC(C)C)NC(=O)[C@H](CCCCN)NC(=O)[C@H](CCCCN)NC(=O)[C@@H](N)CC(C)C)C(=O)N[C@@H](C)C(=O)NCC(N)=O) [3b, third generation peptide, both faces modified]",52,34,24,18,4.2,5.1,22,–
"LKKLLKWLKKLLKLAG [2q, tryptophan scanned second generation peptide]",71,19,17,1.2,15,0.87,21,significantly increased
"LKKLLKLLOrnKLLDapWAG (LKKLLKLL[Orn]KLL[Dap]WAG-NH2; N-terminus assumed; SMILES CC(C)C[C@H](NC(=O)[C@H](CC(C)C)NC(=O)[C@H](CCCCN)NC(=O)[C@H](CCCN)NC(=O)[C@H](CC(C)C)NC(=O)[C@H](CC(C)C)NC(=O)[C@H](CCCCN)NC(=O)[C@H](CC(C)C)NC(=O)[C@H](CC(C)C)NC(=O)[C@H](CCCCN)NC(=O)[C@H](CCCCN)NC(=O)[C@@H](N)CC(C)C)C(=O)N[C@@H](CN)C(=O)N[C@@H](Cc1c[nH]c2ccccc12)C(=O)N[C@@H](C)C(=O)NCC(N)=O) [peptide 3h, third generation peptide, both faces modified]",56,12,19,28,1.6,13,15,–
"LKKLLDapLLKKLLKLAG (LKKLL[Dap]LLKKLLKLAG-NH2; N-terminus assumed; SMILES CC(C)C[C@H](NC(=O)[C@H](CCCCN)NC(=O)[C@H](CC(C)C)NC(=O)[C@H](CC(C)C)NC(=O)[C@H](CCCCN)NC(=O)[C@H](CCCCN)NC(=O)[C@H](CC(C)C)NC(=O)[C@H](CC(C)C)NC(=O)[C@H](CN)NC(=O)[C@H](CC(C)C)NC(=O)[C@H](CC(C)C)NC(=O)[C@H](CCCCN)NC(=O)[C@H](CCCCN)NC(=O)[C@@H](N)CC(C)C)C(=O)N[C@@H](C)C(=O)NCC(N)=O) [2c, second generation peptide, hydrophilic face modified]",61,26,12,9.6,2.4,3.8,5.7,–
"LKKLWKLLKKLLKLAG [2p, tryptophan scanned second generation peptide]",56,20,12,6.2,3.3,2.8,9.8,–
"LKKLLKLLDabKLLKLAG (LKKLLKLL[Dab]KLLKLAG-NH2; N-terminus assumed; SMILES CC(C)C[C@H](NC(=O)[C@H](CCCCN)NC(=O)[C@H](CC(C)C)NC(=O)[C@H](CC(C)C)NC(=O)[C@H](CCCCN)NC(=O)[C@H](CCN)NC(=O)[C@H](CC(C)C)NC(=O)[C@H](CC(C)C)NC(=O)[C@H](CCCCN)NC(=O)[C@H](CC(C)C)NC(=O)[C@H](CC(C)C)NC(=O)[C@H](CCCCN)NC(=O)[C@H](CCCCN)NC(=O)[C@@H](N)CC(C)C)C(=O)N[C@@H](C)C(=O)NCC(N)=O) [2e, second generation peptide, hydrophilic face modified]",57,43,17,23,6.5,3.5,28,–
"LKKLLKLLKKLLKLAG [1h, alanine scanned first generation peptide]",43,9,53,25,0.96,49,63,–
"LAKLLKLLKKLLKLKG [1b, alanine scanned first generation peptide]",44,9,160,140,2.0,53,16,–
"LKKLLKLLKKLLDapWAG (LKKLLKLLKKLL[Dap]WAG-NH2; N-terminus assumed; SMILES CC(C)C[C@H](NC(=O)[C@H](CC(C)C)NC(=O)[C@H](CCCCN)NC(=O)[C@H](CCCCN)NC(=O)[C@H](CC(C)C)NC(=O)[C@H](CC(C)C)NC(=O)[C@H](CCCCN)NC(=O)[C@H](CC(C)C)NC(=O)[C@H](CC(C)C)NC(=O)[C@H](CCCCN)NC(=O)[C@H](CCCCN)NC(=O)[C@@H](N)CC(C)C)C(=O)N[C@@H](CN)C(=O)N[C@@H](Cc1c[nH]c2ccccc12)C(=O)N[C@@H](C)C(=O)NCC(N)=O) [3g, third generation peptide, both faces modified]",63,41,17,11,9.4,1.2,5.9,–
"LKKLLKLLOrnKLLDapLAG (LKKLLKLL[Orn]KLL[Dap]LAG-NH2; N-terminus assumed; SMILES CC(C)C[C@H](NC(=O)[C@H](CN)NC(=O)[C@H](CC(C)C)NC(=O)[C@H](CC(C)C)NC(=O)[C@H](CCCCN)NC(=O)[C@H](CCCN)NC(=O)[C@H](CC(C)C)NC(=O)[C@H](CC(C)C)NC(=O)[C@H](CCCCN)NC(=O)[C@H](CC(C)C)NC(=O)[C@H](CC(C)C)NC(=O)[C@H](CCCCN)NC(=O)[C@H](CCCCN)NC(=O)[C@@H](N)CC(C)C)C(=O)N[C@@H](C)C(=O)NCC(N)=O) [peptide 2k, second generation peptide, hydrophilic face modified]",61,48,17,20,24 and 25,0.68,13,–
"LKKLLKLLKKLLDabLAG (LKKLLKLLKKLL[Dab]LAG-NH2; N-terminus assumed; SMILES CC(C)C[C@H](NC(=O)[C@H](CCN)NC(=O)[C@H](CC(C)C)NC(=O)[C@H](CC(C)C)NC(=O)[C@H](CCCCN)NC(=O)[C@H](CCCCN)NC(=O)[C@H](CC(C)C)NC(=O)[C@H](CC(C)C)NC(=O)[C@H](CCCCN)NC(=O)[C@H](CC(C)C)NC(=O)[C@H](CC(C)C)NC(=O)[C@H](CCCCN)NC(=O)[C@H](CCCCN)NC(=O)[C@@H](N)CC(C)C)C(=O)N[C@@H](C)C(=O)NCC(N)=O) [2h, second generation peptide, hydrophilic face modified]",34,24,25,14,2.0,8.7,12,–
